Laboratory results: PMC10384010, “Chromatographic Data in Statistical Analysis of BBB Permeability Indices” (Membranes, 2023)
Like-named read-outs stand apart in the source and are kept apart here.

Assays:
[1] = HPLC on IAM (immobilized artificial membrane) column, retention factor; assay type: physicochemical; conditions: IAM.PC.DD.2 column; for k(IAM) retention factor: 10 mM phosphate buffer pH 7.4:acetonitrile 80:20; for logkIAM: logarithm of retention factor, phosphate buffer pH 7.4:acetonitrile 80:20
[2] = cited from earlier work
[3] = Normal-phase TLC on silica gel 60 F254 (Rf); assay type: physicochemical; conditions: water:methanol:acetonitrile 60:20:20, ammonium acetate pH 7.4
Procedure: The purity of the isolated substances was checked by TLC chromatography and densitometric scanning.
APIs were subjected to chromatographic in column (HPLC) and thin layer (TLC) formats. TLC chromatography was carried out on 20 cm × 20 cm glass plates by Merck, covered with silica gel and the addition of a fluorescent indicator. Merck TLC silica gel 60 F254 was used for the normal phase (NP). In the reverse phase (RP), RP-2 silanized plates were used (Merck TLC Silica gel 60 RP-2 F254, silanized). The mobile phase was buffered with ammonium acetate to pH 7.4 (LACH-NER, ammonium acetate).
Plates, after developing the chromatograms, were scanned using a densitometer (Desaga CD 60) with an analytical wavelength selected individually for drugs. The values of Rf (molecular descriptors: NP, RP) were determined.

[4] = entering the CNS / not entering the CNS; ref Drugbank [36]; cited from earlier work
[5] = Reversed-phase TLC on RP-2 silanized plates (Rf); assay type: physicochemical; conditions: silica gel 60 RP-2 F254 silanized; water:methanol:acetonitrile 60:20:20, ammonium acetate pH 7.4
[6] = plasma protein binding, given as fraction, ref Drugbank

| Structure (SMILES) | k(IAM) retention factor [1] | logkIAM [1] | PB (protein binding) [2, 6] | NP (Rf from NP TLC plate) [3] | CNS+/- [4] | RP (Rf from RP-2 TLC plate) [5] | PB (protein binding) ([2]; plasma) |
| --- | --- | --- | --- | --- | --- | --- | --- |
| O=C(O)COC(=O)Cc1ccccc1Nc1c(Cl)cccc1Cl [aceclofenac] | 2.63 | 0.42 | 0.99 | 0.89 |  |  |  |
| CC(=O)CC(c1ccc([N+](=O)[O-])cc1)c1c(O)c2ccccc2oc1=O (centres unmarked) [acenocumarol] | 0.53 | -0.27 |  | 0.99 | 1 |  |  |
| CC(=O)Nc1nnc(S(N)(=O)=O)s1 [acetazolamid] |  |  | 0.98 |  |  | 0.97 |  |
| Nc1nc2c(ncn2COCCO)c(=O)[nH]1 [aciclovir] | 0.09 | -1.04 | 0.21 |  |  | 0.99 |  |
| Cc1nnc2n1-c1ccc(Cl)cc1C(c1ccccc1)=NC2 [alprazolam] | 3.14 | 0.50 | 0.8 |  |  |  |  |
| CC1(C)S[C@@H]2[C@H](NC(=O)[C@H](N)c3ccc(O)cc3)C(=O)N2[C@H]1C(=O)O [amoxilcillin] | 0.05 | -1.32 |  | 0.68 |  | 0.99 | 0.2 |
| CC(C)NCC(O)COc1ccc(CCOCC2CC2)cc1 (centres unmarked) [betaxolol] |  |  | 0.5 | 0.66 |  | 0.27 |  |
| CCOCCn1c(C2CCN(CCc3ccc(C(C)(C)C(=O)O)cc3)CC2)nc2ccccc21 [bilastine] | 0.55 | -0.26 | 0.87 | 0.46 |  | 0.76 |  |
| OC(CCN1CCCCC1)(c1ccccc1)C1CC2C=CC1C2 (centres unmarked) [biperiden] | 41.47 | 1.62 | 0.6 | 0.68 |  | 0.87 |  |
| CC(C)C[C@H]1C(=O)N2CCC[C@H]2[C@]2(O)O[C@](NC(=O)[C@@H]3C=C4c5cccc6[nH]c(Br)c(c56)C[C@H]4N(C)C3)(C(C)C)C(=O)N12 [bromocriptine] | 12.69 | 1.10 | 0.93 | 0.95 |  | 0.69 |  |
| C=CCN1C[C@H](C(=O)N(CCCN(C)C)C(=O)NCC)C[C@@H]2c3cccc4[nH]cc(c34)C[C@H]21 [carbegoline] | 17.05 | 1.23 |  | 0.68 |  | 0.68 | 0.41 |
| CCN(CC)C(=O)Nc1ccc(OCC(O)CNC(C)(C)C)c(C(C)=O)c1 (centres unmarked) [celiprolol] | 5.87 | 0.77 | 0.275 | 0.45 |  | 0.75 |  |
| CN(C)CCCC1(c2ccc(F)cc2)OCc2cc(C#N)ccc21 (centres unmarked) [citalopram] |  |  | 0.8 |  |  |  |  |
| O=C(O)C1N=C(c2ccccc2)c2cc(Cl)ccc2NC1=O (centres unmarked) [clorazepate] | 4.88 | 0.69 | 0.975 | 0.94 |  | 0.81 |  |
| CN(C)CCOC(c1ccccc1)c1ccccc1 [diphenhydramin] | 3.66 | 0.56 |  | 0.42 |  | 0.58 | 0.985 |
| CN1CCC[C@@H]1Cc1c[nH]c2ccc(CCS(=O)(=O)c3ccccc3)cc12 [eletriptan] |  |  |  |  | 1 |  |  |
| CN(C)CCC[C@@]1(c2ccc(F)cc2)OCc2cc(C#N)ccc21 [escitalopram] | 32.08 | 1.51 | 0.56 |  |  |  |  |
| C[C@]12CC[C@@H]3c4ccc(OC(=O)c5ccccc5)cc4CC[C@H]3[C@@H]1CC[C@@H]2O [estradiol benzoate] | 6.92 | 0.84 | 0.95 | 0.97 |  | 0.63 |  |
| C[C@]12CC[C@@H]3c4ccc(O)cc4CC[C@H]3[C@@H]1CCC2=O [estrone] | 29.40 | 1.47 | 0.95 | 0.99 |  | 0.79 |  |
| CC[C@@H](CO)NCCN[C@@H](CC)CO [ethambutol] |  |  |  | 0.19 | 0 | 0.97 |  |
| CC(=O)OCC(=O)[C@@]1(O)CC[C@H]2[C@@H]3CCC4=CC(=O)CC[C@]4(C)[C@H]3[C@@H](O)C[C@@]21C [hydrocortisone acetate] | 2.82 | 0.45 | 0.95 | 0.96 |  |  |  |

| Structure (SMILES) | k(IAM) retention factor [1] | logkIAM [1] | PB (protein binding) [2, 6] | NP (Rf from NP TLC plate) [3] | CNS+/- [4] | RP (Rf from RP-2 TLC plate) [5] | PB (protein binding) ([2]; plasma) |
| --- | --- | --- | --- | --- | --- | --- | --- |
| C[C@H]1COc2c(N3CCN(C)CC3)c(F)cc3c(=O)c(C(=O)O)cn1c23 [levofloxacin] | 0.90 | -0.04 | 0.31 | 0.17 |  | 0.27 |  |
| CN1CCN=C(c2ccccc2)c2cc(Cl)ccc21 [medazepam] | 34.65 | 1.54 | 0.99 | 0.91 |  | 0.66 |  |
| OC(CNCC(O)C1CCc2cc(F)ccc2O1)C1CCc2cc(F)ccc2O1 (centres unmarked) [nebivolol] |  |  |  | 0.75 | 1 | 0.4 |  |
| CC1COc2c(N3CCN(C)CC3)c(F)cc3c(=O)c(C(=O)O)cn1c23 (centres unmarked) [ofloxacin] |  |  | 0.32 | 0.24 |  |  |  |
| CC(C)NCC(O)COc1cccc2[nH]ccc12 (centres unmarked) [pindolol] | 6.09 | 0.78 | 0.4 | 0.53 |  |  |  |
| C[C@]12C=CC(=O)C=C1CC[C@@H]1[C@@H]2[C@@H](O)C[C@@]2(C)[C@H]1CC[C@]2(O)C(=O)CO [prednizolone] | 2.84 | 0.45 |  | 0.94 |  | 0.87 | 0.9 |
| CC(=O)[C@H]1CC[C@H]2[C@@H]3CCC4=CC(=O)CC[C@]4(C)[C@H]3CC[C@]12C [progesterone] | 34.99 | 1.54 | 0.975 | 0.96 |  | 0.71 |  |
| CCCc1cc(=O)[nH]c(=S)[nH]1 [propylthiouracil] |  |  | 0.82 |  |  |  |  |
| CO[C@H]1/C=C/O[C@@]2(C)Oc3c(C)c(O)c4c(O)c(c(/C=N/N5CCN(C)CC5)c(O)c4c3C2=O)NC(=O)/C(C)=C\C=C\[C@H](C)[C@H](O)[C@@H](C)[C@@H](O)[C@@H](C)[C@H](OC(C)=O)[C@@H]1C [rifampicin] |  |  | 0.89 | 0.73 |  | 0.95 |  |
| CC[C@H]1OC(=O)[C@H](C)[C@@H](O[C@H]2C[C@@](C)(OC)[C@@H](O)[C@H](C)O2)[C@H](C)[C@@H](O[C@@H]2O[C@H](C)C[C@H](N(C)C)[C@H]2O)[C@](C)(O)C[C@@H](C)/C(=N\OCOCCOC)[C@H](C)[C@@H](O)[C@]1(C)O [roxitromicin] |  |  |  | 0.91 |  | 0.8 | 0.96 |
| Cc1cncc(CN2CCC(=C3c4ccc(Cl)cc4CCc4cccnc43)CC2)c1 [rupatadine] | 9.29 | 0.97 | 0.985 | 0.42 |  | 0.55 |  |
| CN[C@H]1CC[C@@H](c2ccc(Cl)c(Cl)c2)c2ccccc21 [sertraline] | 42.89 | 1.63 | 0.98 | 0.53 |  | 0.49 |  |
| CC(=O)S[C@@H]1CC2=CC(=O)CC[C@]2(C)[C@H]2CC[C@@]3(C)[C@@H](CC[C@@]34CCC(=O)O4)[C@H]12 [spironolactone] | 13.38 | 1.13 | 0.9 | 0.98 |  | 0.78 |  |
| CCN1CCCC1CNC(=O)c1cc(S(N)(=O)=O)ccc1OC (centres unmarked) [sulpiride] | 1.66 | 0.22 | 0.4 | 0.27 |  | 0.85 |  |
| CCS(=O)(=O)CCn1c([N+](=O)[O-])cnc1C [tinidazole] |  |  | 0.12 | 0.89 |  |  |  |
| COc1cccc(C2(O)CCCCC2CN(C)C)c1 (centres unmarked) [tramadol] |  |  | 0.2 |  |  |  |  |
| COc1cc(Cc2cnc(N)nc2N)cc(OC)c1OC [trimethoprim] |  |  |  | 0.57 | 1 |  |  |
| CCN(Cc1ccncc1)C(=O)C(CO)c1ccccc1 (centres unmarked) [tropicamid] | 1.06 | 0.03 |  | 0.85 |  | 0.83 | 0.45 |
| CCCCC(=O)N(Cc1ccc(-c2ccccc2-c2nnn[nH]2)cc1)[C@H](C(=O)O)C(C)C [valsartan] | 0.08 | -1.10 | 0.955 |  |  |  |  |
| CN(C)CCc1c[nH]c2ccc(C[C@H]3COC(=O)N3)cc12 [zolmitriptane] | 3.30 | 0.52 |  | 0.31 |  | 0.86 | 0.25 |
| CN1CCN(C(=O)OC2c3nccnc3C(=O)N2c2ccc(Cl)cn2)CC1 (centres unmarked) [zopiclone] | 0.91 | -0.04 | 0.45 | 0.96 |  | 0.84 |  |
